As usually defined, the IC50 is the concentration needed to halve the response being measured.

Structures can show the parent of a compound that is named as a salt.

These results are taken from US7687640B2, “Cinnamide compound” (Eisai R&D Management Co., Ltd., priority 2004, dated 2010).

This test deals with Aβ42 production. Put plainly: Quantification of Aβ peptide (Aβx-42 ELISA) in neuronal culture from rat fetus brain. As to conditions: primary neuronal culture from cerebral cortices of embryonic day 18 Wistar rat; compound added on day 4 of culture, incubation for 3 days; Aβx-42 in medium by ELISA, % of CTRL; read-out: Effect to Reduce Aβ42 Production IC50. The test is classed as cell-based. How it is done: Quantification of Aβ Peptide in Neuronal Culture from Rat Fetus Brain (1)
Primary neuronal cultures were prepared from cerebral cortices from embryonic day 18 Wistar rat (Charles River Japan, Yokohama, Japan). The embryos were aseptically removed from a pregnant rat under ether anesthesia. The brain was isolated from the embryo, and immersed in ice-cold L-15 medium (for example, Invitrogen Corp. Cat #11415-064, Carlsbad, Calif., USA, or SIGMA L1518, St. Louis. MO, USA). The cerebral cortex was collected under a stereoscopic microscope from the brain. The cerebral cortex fragments collected were subjected to enzyme treatment in an enzyme solution containing 0.25% trypsin (for example, Invitrogen Corp., Cat #15050-065, Carlsbad, Calif., USA) and 0.01% DNase (for example, Sigma D5025, St. Louis. MO, USA) at 37 C for 30 minutes to allow for cell dispersion. The enzyme reaction was terminated by addition of same volume of heat-inactivated horse serum. After centrifugation at 1500 rpm for 5 minutes, the supernatant was removed and 5-10 ml of medium was added to the cell pellet. Neurobasal Medium™ (Invitrogen Corp., Carlsbad, Calif., USA) supplemented with 2% B-27 supplement (Invitrogen Corp., Carlsbad, Calif., USA), 25 μM 2-mercaptoethanol (2-ME, WAKO, 139-06861, Osaka, Japan), 0.5 mM L-glutamine (for example, Invitrogen Corp., Cat # 25030-081, Carlsbad, Calif., USA), and 1% antibiotics-antimycotics (Invitrogen Corp., Cat # 15240-062, Carlsbad, Calif., USA) was used as the culture medium (Neurobasal/B27/2-ME). At the compound evaluation, the medium of the same composition not to add 2-ME alone (Neurobasal/B27) was used. The cell pellet was triturated by mild pipetting. Remaining cell pellet was removed by filtering through a 40-μm nylon mesh (Cell Strainer, Cat # 35-2340, Becton Dickinson Labware, Franklin Lakes, N.J., USA) and a neuronal cell suspension was obtained. The neuronal cell suspension was diluted with the Neurobasal/B27/2-ME medium and then plated in a volume of 100 μl/well to obtain an initial cell density of 5×10^5 cells/cm^2 in a 96-well polystyrene plate pre-coated with poly-L or D-lysine (for example, Falcon MICROTEST Tissue culture plate 96 well flat bottom with low evaporation lid (Cat # 35-3075, Becton Dickinson Labware, Franklin Lakes, N.J., USA) coated with poly-L-lysine using the method shown below, or BIOCOAT™ cell environments Poly-D-lysine cell ware 96-well plate, Cat # 35-6461, Becton Dickinson Labware, Franklin Lakes, N.J., USA). Poly-L-lysine coating was carried out as follows. Poly-L-lysine (SIGMA P2636, St. Louis, Mo., USA) solution at 100 μg/ml was prepared aseptically with 0.15 M Borate buffer (pH 8.5). The solution was added to a 96-well polystyrene […] at 50-100 μl/well and incubated at room temperature for one hour or more, or at 4 C overnight or longer. This was rinsed 4 or more times with sterile water, and then dried or rinsed with, for example, sterile PBS or medium, and used for plating cells. Cells were cultured for one day in an incubator of 5% CO2-95% air at 37 C, the entire amount of the medium was exchanged with fresh Neurobasal/B27/2-ME, and the cells were then cultured for further 3 days.
Drugs were added on day 4 of culture as follows. The entire amount of the medium was removed from culture well, and Neurobasal/B27 medium was added at 180 μl/well. The test compound dimethyl sulfoxide (hereinafter abbreviated as DMSO) solution was diluted with Neurobasal/B27 so than it would be 10-fold of the desired final concentration. A diluent was added at 20 μl/well and mixed well. The final concentration of DMSO was 1% or less. Only DMSO was added to the control group.
After incubation for 3 days, the entire amount of the medium was collected as ELISA sample. This was used without any dilution for Aβx-42 measurement, and diluted to 5-fold with the diluent supplied with ELISA kit for Aβx-40 measurement, before subjecting to respective ELISA assays. […]
In the case of `COc1cc(/C=C2\CCCN([C@H](C)c3ccc(F)cc3F)C2=O)ccc1-n1cnc(C)c1` (mixture of isomers) [Example 621, (E)-1-[(1R) and (1S)-1-(2,4-difluorophenyl)ethyl]-3-[3-methoxy-4-(4-methyl-1H-imidazol-1-yl)benzylidene]piperidin-2-one], the IC50 was 100 nM.

Take `COc1cc(/C=C2\CCCN(Cc3cc(Cl)nc(Cl)c3)C2=O)ccc1-n1cnc(C)c1` [Example 403, (E)-1-(2,6-dichloropyridine-4-ylmethyl)-3-[3-methoxy-4-(4-methyl-1H-imidazol-1-yl)benzylidene]piperidin-2-one]: the IC50 amounted to 90 nM.

Consider `COc1cc(/C=C/C(=O)N[C@H]2CCc3ccccc32)ccc1-n1cnc(C)c1` [Example 122, (E)-N-[(1S)-indan-1-yl]-3-[3-methoxy-4-(4-methyl-1H-imidazol-1-yl)phenyl]acrylamide trifluoroacetic acid salt], for which the IC50 amounted to 190 nM.

Turning to `COc1cc(/C=C/C(=O)NCc2cccc(-c3ccccc3)c2)ccc1-n1cnc(C)c1` [Example 121, (E)-N-biphenyl-3-ylmethyl-3-(3-methoxy-4-(4-methyl-1H-imidazol-1-yl)phenyl)acrylic acid amide], the half-inhibitory concentration (IC50) turned out to be 70 nM.
